Assay results published in ChEMBL document CHEMBL3639270, “Therapeutic agents” (2013).

Target: E3 ubiquitin-protein ligase Mdm2 (Homo sapiens, UniProt Q00987)
Assay: ELISA Assay: Streptavidin-coated 96-well plates are used to immobilise a biotin-tagged IP3 p53-derived peptide ([…]). This is a peptide analogue derived from the p53 binding site for MDM2 ([…]). […] Aliquots of MDM2 generated by in vitro translation are pre-incubated for 20 minutes at room temperature (i.e. 20-25C.) with test compounds and controls, before transfer into the IP3-coated 96-well plates.

Chain of E3 ubiquitin-protein ligase Mdm2 (Q00987 whole entry): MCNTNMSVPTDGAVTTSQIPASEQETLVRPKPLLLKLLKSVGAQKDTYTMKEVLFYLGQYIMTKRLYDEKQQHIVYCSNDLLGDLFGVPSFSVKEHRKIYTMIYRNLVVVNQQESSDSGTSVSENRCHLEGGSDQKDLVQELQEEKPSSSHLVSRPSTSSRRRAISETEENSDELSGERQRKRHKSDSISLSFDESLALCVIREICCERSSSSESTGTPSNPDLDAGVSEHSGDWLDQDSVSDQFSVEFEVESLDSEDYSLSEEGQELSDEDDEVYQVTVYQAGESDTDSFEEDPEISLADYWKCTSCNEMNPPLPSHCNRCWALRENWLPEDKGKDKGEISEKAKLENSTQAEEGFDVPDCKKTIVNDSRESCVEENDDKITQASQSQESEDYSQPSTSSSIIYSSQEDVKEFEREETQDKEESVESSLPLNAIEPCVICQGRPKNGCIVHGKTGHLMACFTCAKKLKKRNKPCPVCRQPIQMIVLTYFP

IC50: 375 nM
SMILES: O=C1c2ccccc2C(O[C@H]2CCC[C@@H](O)CCC2)(c2ccc(Cl)cc2)N1Cc1ccc([N+](=O)[O-])cc1 (stereo partly specified)
